The subject of this series is hCLRN1^N48K-YFP; clrn1^+/+ larvae. In words: Larval survival/lethality by TG or ART dose and treatment duration. Type of series: in vivo, zebrafish. Also noted: key: ‘S’ = Surviving; ‘L’ = Lethal. As to the method: Thapsigargin (TG, 1 mg, Sigma-Aldrich, #T9033) stock in 100% DMSO was diluted in E3 medium to make the required final concentration of the drug. Five different concentrations that were earlier reported to induce ER stress and are non-toxic or lower lethal dose (LD50) in the zebrafish (0.1, 0.5, 1.0, 2.5, 5 μM concentrations) were used in this study. A total of 25 larvae per dosage and treatment duration from the genotypes hCLRN1^N48K-YFP; clrn1^+/+ and hCLRN1-YFP; clrn1^+/+, no older than 72 hours post fertilization (hpf) at the start of the experiment, were placed in a well of 12-well uncoated culture plate (BD Falcon, Canaan, CT). For ER stress induction, larvae were incubated in different dosage of TG from 1 hr to overnight at 28.5° C., followed by three times wash with E3 medium at 28.5° C. (Table 2) and hair cells from the hCLRN1^N48K-YFP; clrn1^+/+ and hCLRN1-YFP; clrn1^+/+ lines were examined for the respective protein distribution pattern in the hair cell bundle and the cell body. Live confocal images of ‘O’ and ‘ML1’ neuromasts per larvae were capture using Leica SP2 confocal microscope with 40× oil immersion objective. Unadjusted 1 micron middle section images of four hair bundles per ML1 neuromast of larvae from TG treated and untreated groups were analyzed using Image J software version v. 1.48 (FIG. 4). The hair bundle trafficked amount of hCLRN1^N48K protein corresponds to the change in YFP intensity in the hair bundle in the TG treated larvae. Quantification of YFP fluorescence intensity was carried out as described in the previous experiment for unconventional trafficking of hCLRN1^N48K-YFP by hGRASP55 cargos. […] Student's t-test was used to confirm the observed changes in the YFP intensity in the hair bundles of TG treatment compared to untreated hCLRN1^N48K-YFP; clrn1^+/+ larvae, is significant (FIG. 4J).
Arthemisinin (ART, 100 mg, Sigma-Aldrich, #361593) in 100% DMSO was diluted in E3 medium to make the final concentration. Five different concentrations within the range of reported ER stress inducing level in the zebrafish (0.1, 0.25, 0.4, 0.5, and 1 μM concentrations) were used in this study. A total of 25 larvae, no older than 72 hpf at the start of the experiment, were placed in a well of 12-well uncoated culture plate (BD 35 Falcon, Canaan, CT). For ER stress induction, larvae were exposed in different dosage of ART for different duration at 28.5° C. (Table 3) and washed three times with E3 medium, and hair cells from the hCLRN1-YFP; clrn1^+/+ larvae and hCLRN1^N48K-YFP; clrn1^+/+ larvae were examined for the respective protein distribution pattern in the hair cell bundle and the cell body. Live confocal Z-stack images of otic ‘O’ and middle ‘ML’ neuromasts per larvae of hCLRN1-YFP; clrn1^+/+ larvae and hCLRN1^N48K-YFP; clrn1^+/+ genotypes from the untreated group in the E3 medium, 0.01% DMSO treatment group and ART treatment group were capture using Leica SP2 confocal microscope at 40× oil immersion objective. Hair cells from 2 otic (0) and 2 middle (ML) neuromasts per larvae were examined for the change in YFP intensity in the hair bundle and cell body. From the captured confocal images of these neuromast hair cells, unadjusted 1 micron middle section images of 4 mature hair bundles from ML1 neuromast per larvae were considered for the YFP intensity quantification in unadjusted ROI covering the middle section of each hair bundles using the imageJ software. […] The hair bundle trafficked amount of hCLRN1^N48K protein corresponds to the change in YFP intensity in the hair bundle in the ART treated larvae. Quantification of YFP fluorescence intensity was carried out as described in the previous experiment for unconventional trafficking of hCLRN1^N48K-YFP by hGRASP55 cargos. Student's t-test was used to confirm the observed changes in the YFP intensity in the hair bundles of ART treatment compared to untreated and TG treated hCLRN1^N48K-YFP; clrn1^+/+ larvae, is significant (FIG. 4J).

Each structure is given as a SMILES string.

On to `C[C@@H]1CC[C@H]2[C@@H](C)C(=O)O[C@@H]3O[C@@]4(C)CC[C@@H]1[C@]32OO4` [ART, Artemisinin], for which the Larvae survival entry (ART 0.4 μM, exposure 8 h) is “L”; the Larvae survival entry (ART 0.4 μM, exposure 10 h) was “L”; the Larvae survival entry (ART 0.5 μM, exposure 1 h) was “L”; the Larvae survival entry (ART 0.5 μM, exposure 2 h) was “L”; the Larvae survival entry (ART 0.5 μM, exposure 4 h) is given as “L”; the Larvae survival result (ART 0.5 μM, exposure 6 h) is listed as “L”. For the same compound, the Larvae survival result (ART 0.5 μM, exposure 8 h) was “L”; the Larvae survival result (ART 0.5 μM, exposure 10 h) is listed as “L”; the Larvae survival result (ART 1.0 μM, exposure 1 h) is “L”; the Larvae survival result (ART 1.0 μM, exposure 2 h) is “L”; the Larvae survival entry (ART 1.0 μM, exposure 4 h) is recorded as “L”; the Larvae survival entry (ART 1.0 μM, exposure 6 h) is “L”. The Larvae survival entry is, setting by setting: (ART 1.0 μM, exposure 8 h) “L”; (ART 1.0 μM, exposure 10 h) “L”.
As for `C/C=C(/C)C(=O)O[C@H]1C(C)=C2[C@H]([C@@H]1OC(=O)CCCCCCC)[C@@](C)(OC(C)=O)C[C@H](OC(=O)CCC)[C@@]1(O)[C@H]2OC(=O)[C@@]1(C)O` [TG, Thapsigargin], the Larvae survival result (TG 0.1 μM, exposure 1 h) is reported as “S”; the Larvae survival result (TG 0.1 μM, exposure 2 h) is reported as “S”; the Larvae survival entry (TG 0.1 μM, exposure 3 h) was “S”; the Larvae survival result (TG 0.1 μM, exposure 4 h) is recorded as “S”; the Larvae survival result (TG 0.1 μM, exposure 8 h) is listed as “S”; the Larvae survival entry (TG 0.1 μM, exposure 16 h) was “S”. In addition, the Larvae survival result was “S” (TG 0.5 μM, exposure 1 h); “S” (TG 0.5 μM, exposure 2 h); “S” (TG 0.5 μM, exposure 3 h); “S” (TG 0.5 μM, exposure 4 h); “S” (TG 0.5 μM, exposure 8 h); “L” (TG 0.5 μM, exposure 16 h). For the same compound, the Larvae survival result is, setting by setting: (TG 1.0 μM, exposure 1 h) “S”; (TG 1.0 μM, exposure 2 h) “S”; (TG 1.0 μM, exposure 3 h) “S”; (TG 1.0 μM, exposure 4 h) “S”; (TG 1.0 μM, exposure 8 h) “L”; (TG 1.0 μM, exposure 16 h) “L”. In addition, the Larvae survival entry (TG 2.5 μM, exposure 1 h) is “L”; the Larvae survival entry (TG 2.5 μM, exposure 2 h) is reported as “L”; the Larvae survival result (TG 2.5 μM, exposure 3 h) is “L”; the Larvae survival result (TG 2.5 μM, exposure 4 h) was “L”; the Larvae survival entry (TG 2.5 μM, exposure 8 h) is “L”; the Larvae survival entry (TG 2.5 μM, exposure 16 h) is “L”. In addition, the Larvae survival result (TG 5.0 μM, exposure 1 h) is reported as “L”; the Larvae survival entry (TG 5.0 μM, exposure 2 h) was “L”; the Larvae survival result (TG 5.0 μM, exposure 3 h) was “L”; the Larvae survival result (TG 5.0 μM, exposure 4 h) was “L”; the Larvae survival result (TG 5.0 μM, exposure 8 h) is given as “L”; the Larvae survival result (TG 5.0 μM, exposure 16 h) is given as “L”.

(Values after US11865103B2, “Methods of treating disorders associated with glycosylation defective proteins” (CASE WESTERN RESERVE UNIVERSITY, priority 2016, dated 2024).)
